This passage reports TGI results from PubChem BioAssay (NCI).

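Protocol summary: plate cells (96-well), add compound at 5 concentrations, incubate 48 h, interpolate endpoints linearly. TGI denotes the concentration required for complete inhibition of growth.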

Holding throughout (experiment): growth of human tumour cells (NCI), 48 h
Assay [1] has as its system HCT-15 colon.
For assay [2], the system named is HL-60(TB) leukemia.
Assay [3] deals with NCI-H226 lung.
For assay [4], the system named is SW-620 colon.
The test system of assay [5] is MDA-N.
The test system of assay [6] is BT-549 breast.
The test system of assay [7] is TK-10 renal.
Assay [8] concerns 786-0 renal.
For assay [9], the system named is A549 NSCLC.
Assay [10] concerns OVCAR-5 ovarian.
In assay [11] the test system is HS 578T breast.
For assay [12], the system named is T-47D breast.
For assay [13], the system named is HCC-2998 colon.
Assay [14] has as its system SR leukemia.

As to `c1ccc(C2CC(N3CCOCC3)=Nc3ccccc3N2)cc1` (stereo not given), the TGI in assay [1], in assay [2], in assay [3], in [4], in [5] and in [6] was above 100 µM throughout. Besides, the TGI in [7], in assay [8], in assay [9], in assay [10] and in assay [11] was above 100 µM in each case.

In the case of `COC(=O)C(Cc1ccccc1)NS(=O)(=O)c1ccc(-c2c3nc(c(-c4ccc(S(=O)(=O)NC(Cc5ccccc5)C(=O)OC)cc4)c4ccc([nH]4)c(-c4ccc(S(=O)(=O)NC(Cc5ccccc5)C(=O)OC)cc4)c4nc(c(-c5ccc(S(=O)(=O)NC(Cc6ccccc6)C(=O)OC)cc5)c5ccc2[nH]5)C=C4)C=C3)cc1` (stereo not given), the TGI in assay [12], in [1], in [2], in assay [4], in assay [5] and in assay [6] was above 100 µM each time. The TGI in [7], in assay [13], in assay [8], in [14], in assay [9] and in assay [10] was above 100 µM throughout. In [11], this compound gave a TGI of 62 µM.

In the case of `COC(=O)c1ccccc1CC1Cc2cc3c(cc2C1)CCC3`, the TGI in [12] is above 100 µM; in assay [1] it was above 100 µM; in assay [2] it was 23.4 µM; in [3] it was above 100 µM; in assay [4], above 100 µM; in assay [5] it was above 100 µM. Also, the TGI in [7] is above 100 µM; in assay [13], above 100 µM; in assay [8], above 100 µM; in assay [14], 29.2 µM; in assay [9], above 100 µM; in assay [10] it was above 100 µM. Moreover, the TGI in assay [11] is above 100 µM.

`Cn1cc(-c2ccc(CCOC3CCCCO3)cc2)c2c(C#N)cccc21` (stereo not given): the TGI in assay [12], in assay [1], in [2], in [4], in assay [5] and in [6] was above 100 µM throughout. For the same compound, the TGI in [7], in [13], in assay [8], in assay [14], in assay [9] and in assay [10] was above 100 µM throughout. The compound further returned a TGI in assay [11] above 100 µM.

As to `COc1cc2c[n+](C)c3c4ccccc4ccc3c2cc1OC`, the TGI in assay [12] is 9.22 µM; in [1], above 100 µM; in assay [3] it was 14.4 µM; in assay [4], above 63.6 µM; in assay [5] it was above 36.7 µM; in assay [6] it was 16.7 µM. Also, the TGI in [7] is above 100 µM; in assay [13], 42.4 µM; in [8], 60.4 µM; in [9], 23.2 µM; in assay [10] it was above 100 µM; in assay [11], 13 µM.

As for `Cc1cc(S(=O)(=O)Nc2nc(N)n(C)n2)c(S)cc1Cl`, the TGI in [12], in assay [1], in [2], in assay [3], in assay [4] and in assay [5] was above 10 µM in each case. Further, the TGI in assay [6], in [7], in [13], in [8], in [9] and in assay [10] was above 10 µM in each case. This compound returned a TGI in assay [11] above 10 µM.

Take `O=[N+]([O-])C(=C1Nc2ccccc2N1)C(Cl)=C(Cl)Cl`: the TGI is 77.7 µM in [12]; above 100 µM in assay [1]; above 100 µM in assay [2]; above 100 µM in [3]; above 100 µM in assay [4]; above 100 µM in assay [5]. Also, the TGI in assay [7], in [13], in assay [8], in [14], in assay [9] and in assay [10] was above 100 µM each time. This compound also showed a TGI in assay [11] above 100 µM.

In the case of `COc1cc2c(cc1OC)-c1cc3ccccc3c(=O)n1CCC2`, the TGI in assay [12] was 68.9 µM; in assay [1] it was 27.5 µM; in assay [2], 11.5 µM; in assay [3], 70.5 µM; in assay [4], above 87.9 µM; in assay [5], 33.6 µM. In addition, the TGI is 89.2 µM in assay [6]; above 100 µM in [7]; above 64.3 µM in assay [13]; above 51.3 µM in assay [8]; above 100 µM in assay [9]; above 100 µM in assay [10]. The same compound had a TGI in assay [11] above 100 µM.

On to `CC(C)(C)OC(=O)C1/C(=C/CO)CN1C(=O)OC(C)(C)C` (stereo not given), for which the TGI in [1], in assay [2], in [4], in assay [5], in assay [6] and in assay [7] was above 100 µM throughout. Besides, the TGI in [13], in [8], in assay [14], in [9], in assay [10] and in assay [11] was above 100 µM in each case.

As to `CCCCCCCCCCCCCCCCCCNc1ccn(C2OC(CO)C(OP(=O)(O)OCC3CCC(n4ccc(N)nc4=O)O3)C2O)c(=O)n1` (stereo not given), the TGI in assay [12] is above 100 µM; in assay [1] it was above 100 µM; in assay [2], 43.6 µM; in [3], above 100 µM; in [4], above 100 µM; in [5] it was above 100 µM. In addition, the TGI was 89.8 µM in [6]; above 100 µM in [7]; above 100 µM in assay [8]; above 100 µM in assay [9]; above 100 µM in assay [10]; above 100 µM in assay [11].
